Assay: mn = molality of the nth substance listed, in mol/kg
Conditions: 350 kPa, Liquid, Vibrating tube method

CSCC[C@H](N)C(=O)O [L-methionine] + O
mass density [kg/m3]
Conditions	m1 = 0.0125	m1 = 0.025	m1 = 0.05	m1 = 0.0997	m1 = 0.1501	m1 = 0.1929
278.15 K	1000.87	1001.33	1002.43	1005.13	1007.08	1008.66
283.15 K	1000.6	1001.06	1002.07	1004.77	1006.7	1008.25
288.15 K	999.97	1000.44	1001.43	1004.07	1005.97	1007.5
298.15 K	997.89	998.35	999.32	1001.89	1003.72	1005.21
308.15 K	994.85	995.32	996.3	998.76	1000.54	1002.01
318.15 K	991.01	991.47	992.35	994.85	996.62	998.08
328.15 K	986.48	986.94	987.79	990.26	992	993.45
338.15 K	981.32	981.79	982.66	985.05	986.79	988.23
348.15 K	975.6	976.09	976.97	979.29	981.03	982.49
358.15 K	969.38	969.84	970.77	973.02	974.79	976.26
368.15 K	962.63	963.11	964.09	966.29	968.05	969.51
